Where a SMILES comes first, the peptide text is derived from it. Bridges are numbered along the chain shown (N, C = ends). [ ]: non-standard residue; d: D form. Phe(4-NH2) = Nc1ccc(C[C@H](N)C(=O)O)cc1; Phe(4-F) = N[C@@H](Cc1ccc(F)cc1)C(=O)O; 1Nal = N[C@@H](Cc1cccc2ccccc12)C(=O)O; NMeA = CN[C@@H](C)C(=O)O; Nle = CCCC[C@H](N)C(=O)O
How the values were obtained:
[1] = test system: guinea pig tracheal smooth muscle; assay: Tracheal relaxant activity of VIP analogs on isolated guinea pig tracheal rings; format: cell-based; details: cumulative concentration response, relaxation as % of maximum response to VIP (10^-6 M=100%), three tissues pooled, linear regression
Method in brief: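 Male guinea pig tracheal rings under 1.5 g resting tension in Krebs at 37° C, 95% O2/5% CO2, isometric tension. Cumulative concentration-response curves; relaxation as % of response to 10^-6 M VIP added at end; three tissues pooled, EC50 by linear regression.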

guinea pigs = assay: In vivo bronchodilator activity by tracheal instillation against histamine challenge; parameters: species or system guinea pig; details: anesthetized male guinea pigs, inhibition of histamine (i.v.)-induced rise in tracheal pressure
Protocol: The in vivo bronchodilator activity of VIP and VIP analogs in guinea pigs was assessed by the tracheal instillation route of administration. This technique utilized male guinea pigs (Hartley strain, Charles River) weighing 400-600 g. Animals were anesthetized with urethane (2 g/kg) intraperitoneally and a polyethylene cannula was inserted into the jugular vein for intraveneous drug administration.
The animals were tracheotomized and dosing solutions of distilled water or test compound dissolved in distilled water were administered into the trachea, approximately three-quarters the distance to the carina with a pipette. The concentration of the dosing solution was adjusted to deliver a constant volume of […]. The animals were placed supine for one minute to aid drug delivery to the lung. One minute later, spontaneous breathing was arrested with succinylcholine chloride (1.2 mg/kg) administered intraveneously, and the animals were ventilated with a HARVARD Model 680 small animal respirator set at 40 breaths/min and 4.0 cm^3 stroke volume. The animals were challenged with a maximal constrictory dose of histamine ([…], i.v.) and tracheal pressure (cm of water) was recorded from a STATHAM pressure transducer (P 32 AA).
The change in tracheal pressure was averaged for at least 3 control and 3 drug-treated animals and percent inhibition was calculated. The relative potency of compounds administered by the instillation route was determined by administering various doses of test compound and calculating the median effective dose (ED50 value). The ED50 was determined from log dose-response curves generated by at least 3 doses that caused inhibitory effects between 10% and 90%. The correlation coefficients for the regression line of each compound was always greater than 0.95.
For determination of the time course of inhibition for various compounds, the time between administration of compound and challenge with histamine was varied. The time course of activity was calculated as the time when inhibition decreased to 40%.
The results summarized in Table II show the in vivo bronchodilator activity of the VIP analogs in comparison to native VIP.

Row | EC50 [1] [nM] | Compound | Bronchodilator activity of VIP analogs in guinea pigs, ED50 (guinea pigs) [μg]
1 | 0.61 | CCCC[C@H](NC(=O)[C@H](CCC(N)=O)NC(=O)[C@H](CCCCN)NC(=O)[C@H](CCCNC(=N)N)NC(=O)[C@H](CC(C)C)NC(=O)[C@H](CCCCN)NC(=O)[C@@H](NC(=O)[C@H](Cc1ccc(O)cc1)NC(=O)[C@H](CC(N)=O)NC(=O)[C@H](CCC(=O)O)NC(=O)[C@@H](NC(=O)[C@H](Cc1ccccc1)NC(=O)[C@@H](NC(=O)[C@H](C)NC(=O)[C@H](CC(=O)O)NC(=O)[C@H](CO)NC(=O)[C@H](Cc1c[nH]cn1)NC(C)=O)C(C)C)[C@@H](C)O)[C@@H](C)O)C(=O)N[C@@H](C)C(=O)N[C@@H](C)C(=O)N[C@@H](CCCCN)C(=O)N[C@H]1CCCCNC(=O)C[C@@H](C(=O)N[C@@H](CC(C)C)C(=O)N[C@@H](CCCCN)C(=O)N[C@@H](CCCCN)C(=O)N[C@@H](C)C(=O)N[C@@H](C)C(=O)N[C@@H](C)C(N)=O)NC(=O)[C@H](CC(N)=O)NC(=O)[C@H](CC(C)C)NC(=O)[C@H](Cc2ccc(O)cc2)NC1=O [SEQ ID NO:42, Ac-[Glu^8,Lys^12,Nle^17,Ala^19,Asp^25,Leu^26,Lys^27,28,Ala^29-31]-VIP cyclo (Lys^21 →Asp^25)] (Ac-HSDAVFTENYTKLRKQ[Nle]AAKKYLNDLKKAAA-NH2; lactam 21-25) | 0.072
2 | 0.55 | CCCC[C@H](NC(=O)[C@H](CCC(N)=O)NC(=O)[C@H](CCCCN)NC(=O)[C@H](CCCNC(=N)N)NC(=O)[C@H](CC(C)C)NC(=O)[C@H](CCCCN)NC(=O)[C@@H](NC(=O)[C@H](Cc1ccc(O)cc1)NC(=O)[C@H](CC(N)=O)NC(=O)[C@H](CCC(=O)O)NC(=O)[C@@H](NC(=O)[C@H](Cc1ccccc1)NC(=O)[C@@H](NC(=O)[C@H](C)NC(=O)[C@H](CC(=O)O)NC(=O)[C@H](C)NC(=O)[C@H](Cc1c[nH]cn1)NC(C)=O)C(C)C)[C@@H](C)O)[C@@H](C)O)C(=O)N[C@@H](C)C(=O)N[C@@H](C)C(=O)N[C@@H](CCCCN)C(=O)N[C@H]1CCCCNC(=O)C[C@@H](C(=O)N[C@@H](CC(C)C)C(=O)N[C@@H](CCCCN)C(=O)N[C@@H](CCCCN)C(=O)N[C@@H](C)C(=O)N[C@@H](C)C(=O)N[C@@H](C)C(N)=O)NC(=O)[C@H](CC(N)=O)NC(=O)[C@H](CC(C)C)NC(=O)[C@H](Cc2ccc(O)cc2)NC1=O [SEQ ID NO:43, Ac-[Ala^2,Glu^8,Lys^12,Nle^17,Ala^19,Asp^25,Leu^26,Lys^27,28,Ala^29-31]-VIP cyclo (Lys^21 →Asp^25)] (Ac-HADAVFTENYTKLRKQ[Nle]AAKKYLNDLKKAAA-NH2; lactam 21-25) | 0.14

The remaining lines, values behind:

Row | Compound | EC50 [1] [nM] | Bronchodilator activity of VIP analogs in guinea pigs, ED50 (guinea pigs) [μg]
3 | CCCC[C@H](NC(=O)[C@H](CCC(N)=O)NC(=O)[C@H](CCCCN)NC(=O)[C@H](CCCNC(=N)N)NC(=O)[C@H](CC(C)C)NC(=O)[C@H](CCCCN)NC(=O)[C@@H](NC(=O)[C@H](Cc1ccc(O)cc1)NC(=O)[C@H](CC(N)=O)NC(=O)[C@H](CCC(=O)O)NC(=O)[C@@H](NC(=O)[C@H](Cc1ccccc1)NC(=O)[C@@H](NC(=O)[C@H](C)NC(=O)[C@H](CC(=O)O)NC(=O)[C@H](CO)NC(=O)[C@H](C)N(C)C(C)=O)C(C)C)[C@@H](C)O)[C@@H](C)O)C(=O)N[C@@H](C)C(=O)N[C@@H](C)C(=O)N[C@@H](CCCCN)C(=O)N[C@H]1CCCCNC(=O)C[C@@H](C(=O)N[C@@H](CC(C)C)C(=O)N[C@@H](CCCCN)C(=O)N[C@@H](CCCCN)C(N)=O)NC(=O)[C@H](CC(N)=O)NC(=O)[C@H](CC(C)C)NC(=O)[C@H](Cc2ccc(O)cc2)NC1=O [SEQ ID NO:44, Ac-[N-Me-Ala^1,Glu^8,Lys^12,Nle^17,Ala^19,Asp^25,Leu^26,Lys^27,28]-VIP cyclo (Lys^21 →Asp^25)] (Ac-[NMeA]SDAVFTENYTKLRKQ[Nle]AAKKYLNDLKK-NH2; lactam 21-25) | 0.36 | 0.097
4 | CCCC[C@H](NC(=O)[C@H](CCC(N)=O)NC(=O)[C@H](CCCCN)NC(=O)[C@H](CCCNC(=N)N)NC(=O)[C@H](CC(C)C)NC(=O)[C@H](CCCCN)NC(=O)[C@@H](NC(=O)[C@H](Cc1ccc(O)cc1)NC(=O)[C@H](CC(N)=O)NC(=O)[C@H](CCC(=O)O)NC(=O)[C@@H](NC(=O)[C@H](Cc1ccc(F)cc1)NC(=O)[C@@H](NC(=O)[C@H](C)NC(=O)[C@H](CC(=O)O)NC(=O)[C@H](CO)NC(=O)[C@H](Cc1c[nH]cn1)NC(C)=O)C(C)C)[C@@H](C)O)[C@@H](C)O)C(=O)N[C@@H](C)C(=O)N[C@@H](C)C(=O)N[C@@H](CCCCN)C(=O)N[C@H]1CCCCNC(=O)C[C@@H](C(=O)N[C@@H](CC(C)C)C(=O)N[C@@H](CCCCN)C(=O)N[C@@H](CCCCN)C(N)=O)NC(=O)[C@H](CC(N)=O)NC(=O)[C@H](CC(C)C)NC(=O)[C@H](Cc2ccc(O)cc2)NC1=O [SEQ ID NO:45, Ac-[p-F-Phe^6,Glu^8,Lys^12,Nle^17,Ala^19,Asp^25,Leu^26,Lys^27,28]-VIP cyclo (Lys^21 →Asp^25)] (Ac-HSDAV[Phe(4-F)]TENYTKLRKQ[Nle]AAKKYLNDLKK-NH2; lactam 21-25) | 0.47 | 0.026
5 | CCCC[C@H](NC(=O)[C@H](CCC(N)=O)NC(=O)[C@H](CCCCN)NC(=O)[C@H](CCCNC(=N)N)NC(=O)[C@H](CC(C)C)NC(=O)[C@H](CCCCN)NC(=O)[C@@H](NC(=O)[C@H](Cc1ccc(O)cc1)NC(=O)[C@H](CC(N)=O)NC(=O)[C@H](CCC(=O)O)NC(=O)[C@@H](NC(=O)[C@H](Cc1cccc2ccccc12)NC(=O)[C@@H](NC(=O)[C@H](C)NC(=O)[C@H](CC(=O)O)NC(=O)[C@H](CO)NC(=O)[C@H](Cc1c[nH]cn1)NC(C)=O)C(C)C)[C@@H](C)O)[C@@H](C)O)C(=O)N[C@@H](C)C(=O)N[C@@H](C)C(=O)N[C@@H](CCCCN)C(=O)N[C@H]1CCCCNC(=O)C[C@@H](C(=O)N[C@@H](CC(C)C)C(=O)N[C@@H](CCCCN)C(=O)N[C@@H](CCCCN)C(N)=O)NC(=O)[C@H](CC(N)=O)NC(=O)[C@H](CC(C)C)NC(=O)[C@H](Cc2ccc(O)cc2)NC1=O [SEQ ID NO:46, Ac-[1-Nal^6,Glu^8,Lys^12,Nle^17,Ala^19,Asp^25,Leu^26,Lys^27,28]-VIP cyclo (Lys^21 →Asp^25)] (Ac-HSDAV[1Nal]TENYTKLRKQ[Nle]AAKKYLNDLKK-NH2; lactam 21-25) | 0.26 | 0.036
6 | CCCC[C@H](NC(=O)[C@H](CCC(N)=O)NC(=O)[C@H](CCCCN)NC(=O)[C@H](CCCNC(=N)N)NC(=O)[C@H](CC(C)C)NC(=O)[C@H](CCCCN)NC(=O)[C@@H](NC(=O)[C@H](Cc1ccc(N)cc1)NC(=O)[C@H](CC(N)=O)NC(=O)[C@H](CCC(=O)O)NC(=O)[C@@H](NC(=O)[C@H](Cc1ccccc1)NC(=O)[C@@H](NC(=O)[C@H](C)NC(=O)[C@H](CC(=O)O)NC(=O)[C@H](CO)NC(=O)[C@H](Cc1c[nH]cn1)NC(C)=O)C(C)C)[C@@H](C)O)[C@@H](C)O)C(=O)N[C@@H](C)C(=O)N[C@@H](C)C(=O)N[C@@H](CCCCN)C(=O)N[C@H]1CCCCNC(=O)C[C@@H](C(=O)N[C@@H](CC(C)C)C(=O)N[C@@H](CCCCN)C(=O)N[C@@H](CCCCN)C(N)=O)NC(=O)[C@H](CC(N)=O)NC(=O)[C@H](CC(C)C)NC(=O)[C@H](Cc2ccc(O)cc2)NC1=O [SEQ ID NO:47, Ac-[Glu^8,p-NH2 -Phe^10,Lys^12,Nle^17,Ala^19,Asp^25,Leu^26,Lys^27,28]-VIP cyclo (Lys^21 →Asp^25)] (Ac-HSDAVFTEN[Phe(4-NH2)]TKLRKQ[Nle]AAKKYLNDLKK-NH2; lactam 21-25) | 0.32 | 0.075

Reference: US5677419A, “Cyclic vasoactive peptide analogs” (Hoffmann-La Roche Inc., priority 1994, dated 1997)
